Measured values reported in patent US20150191484A1, “NOVEL COMPOUNDS HAVING A TETRACYCLIC IRIDOID SKELTON AND AN ANTI-TRYPANOSOMAL AGENT COMPRISING THE SAME AS AN ACTIVE INGREDIENT” (NATIONAL UNIVERSITY CORPORATION TOKYO MEDICAL AND DENTAL …, priority 2014, published 2015).
Entries after “also recorded” stand apart in the source; their conditions may differ.

Columns and labels:
Leishmania = conditions: reported in literature; cited from earlier work
KATOIII (stomach cancer) = assay: MTT cytotoxicity assay, KATOIII; assay type: cell-based, human; conditions: IC50 against KATOIII / IC50 against T. brucei
Experimental: (§1) The cytotoxic activity of natural products against mammalian cells is an important point in the search for active compounds with biological activity. […] In order to confirm the selective and potent anti-trypanosomal activity of ML-2-2 and ML-2-3, we examined their cytotoxicity in a panel of human cell lines including two human fibroblastic and 8 human cancer-derived cell lines. Cells were seeded in 96-well microplates and incubated with ML-2-2 and ML-2-3 for 48 h at 37° C. in a 5% CO2 humidified incubator. The viabilities of cells were determined with the MTT (3-(4,5-dimethylthiazol-2-yl)-2-5-diphenyltetrazolium bromide) assay. The selectivity index (SI) was determined using the following equation: IC50 against human cells/IC50 against T. brucei. The IC50 values of ML-2-3 were higher than those of ML-2-2 in all the cell lines examined. […] The SI of ML-2-2 indicates values below 1.00 in most cell lines. On the other hand, SI values of ML-2-3 were much higher than those of ML-2-2 in all tested cell lines.

[1] = MTT cytotoxicity assay, KATOIII; assay type: cell-based, human; conditions: human, KATOIII stomach cancer cells; KATOIII stomach cancer, 48 h, MTT
Experimental: as §1

[2] = system: GUTat 3.1 strain of the bloodstream forms of T. b. brucei parasites; assay: Alamar Blue assay (trypanocidal activity); assay type: cell-based, Trypanosoma brucei brucei; conditions: Trypanosoma brucei, 48 h, T. b. brucei, Alamar Blue, 48 h; read-out: IC50 of anti-trypanosomal activity
Experimental: (§2) The GUTat 3.1 strain of the bloodstream forms of T. b. brucei parasites was used for this study. Parasites were cultured in vitro according to the conditions established by Yabu et al, 1998.
(§3) Parasites were used when they reached a confluent concentration of 1×10^6 parasites/ml. Estimation of parasitemia was done with the Neubauer's counting chamber. Parasites were diluted to a concentration of 3×10^5 parasites/ml with HMI-9 medium and used for the various experiments.
The Alamar Blue assay was carried out in a 96-well plate. About 1.5×10^4 Parasites were seeded with varied concentrations of the Morinda lucida crude extract, ranging from as low as 0.78 μg/ml to as high as 200 μg/ml, in a ratio of 1:1 in 100 μl volume per well. Berberine, a compound known as anti-trypanocidal agent, was used as a positive control. […] The parasites were incubated with the plant extracts for 24 hours at 37° C. and under 5% CO2. After 24 hours, 10% Alamar Blue dye was added to each well and re-incubated for another 24 hours under the same conditions but in darkness. After a total of 48 hours, the plate was read for absorbance at 540 nm using the TECAN Sunrise Wako Spectrophotometer. An Absorbance-concentration (extract) curve was drawn and the IC50 value of the plant extract was extrapolated. Alamar Blue assay was also performed on the fractions and compounds purified from Morinda Lucida to determine their IC50 values. The IC50 values obtained were compared with that of the positive control and trypanocidal activity determined.

[3] = MTT cytotoxicity assay, HL-60; assay type: cell-based, human; conditions: human, HL-60 leukemia cells; HL-60 leukemia, 48 h, MTT
Experimental: as §1

HL-60 (leukemia) = assay: MTT cytotoxicity assay, HL-60; assay type: cell-based, human; conditions: IC50 against HL-60 / IC50 against T. brucei
Experimental: as §1

[4] = MTT cytotoxicity assay, LoVo; assay type: cell-based, human; conditions: human, LoVo colon cancer cells; LoVo colon cancer, 48 h, MTT
Experimental: as §1

LoVo (colon cancer) = assay: MTT cytotoxicity assay, LoVo; assay type: cell-based, human; conditions: IC50 against LoVo / IC50 against T. brucei
Experimental: as §1

HCT-15 (colon cancer) = assay: MTT cytotoxicity assay, HCT-15; assay type: cell-based, human; conditions: IC50 against HCT-15 / IC50 against T. brucei
Experimental: as §1

[5] = MTT cytotoxicity assay, HCT-15; assay type: cell-based, human; conditions: human, HCT-15 colon cancer cells; HCT-15 colon cancer, 48 h, MTT
Experimental: as §1

[6] = MTT cytotoxicity assay, Caco2; assay type: cell-based, human; conditions: human, Caco2 colon cancer cells; Caco2 colon cancer, 48 h, MTT
Experimental: as §1

Caco2 (colon cancer) = assay: MTT cytotoxicity assay, Caco2; assay type: cell-based, human; conditions: IC50 against Caco2 / IC50 against T. brucei
Experimental: as §1

[7] = MTT cytotoxicity assay, NB1RGB; assay type: cell-based, human; conditions: human, NB1RGB normal fibroblast cells; NB1RGB normal fibroblast, 48 h, MTT
Experimental: as §1

[8] = system: NB1RGB (normal fibroblast); assay: MTT cytotoxicity assay, NB1RGB; assay type: cell-based, human; conditions: IC50 against NB1RGB / IC50 against T. brucei
Experimental: as §1

Jurkat (leukemia) = assay: MTT cytotoxicity assay, Jurkat; assay type: cell-based, human; conditions: IC50 against Jurkat / IC50 against T. brucei
Experimental: as §1

[9] = MTT cytotoxicity assay, Jurkat; assay type: cell-based, human; conditions: human, Jurkat leukemia cells; Jurkat leukemia, 48 h, MTT
Experimental: as §1

Trypanosoma cells [10] = assay: Cell cycle assay (FACS); assay type: cell-based, Trypanosoma brucei brucei; conditions: four times of IC50: 15 μM ML-2-3, 5 μM ML-2-2; 24 hours
Experimental: as §2, §3
This assay was performed to investigate any abnormal change in the parasites' cell cycle which may be caused by extracts/compounds with trypanocidal effect. […] The parasites were collected and transferred into 15 ml centrifuge tubes and centrifuged at 1700 rpm for 10 min, after which the supernatant was discarded. The pelleted parasites were re-suspended in 5 ml PBS solution and vortexed to form a suspension. The parasite suspension was centrifuged at 1700 rpm for 10 min and the supernatant discarded. The pelleted parasites were re-suspended in 1.5 ml of PBS and vortexed thoroughly before adding 3.5 ml absolute EtOH gradually to a final volume of 5 ml 70% EtOH. The parasites were then fixed at −20° C. for 1 h. The cell suspension was then centrifuged at 1700 rpm for 10 min and the supernatant discarded. Pelleted parasites were re-suspended in 200 μl of Guava Cell Cycle reagent, which has Propidium Iodide as its main constituent and incubated at room temperature for 30 min. The solution was transferred to wells of 96-well plate. The well contents were then subjected to FACS analysis using the Millipore guava easyCyte 5HT FACS machine, for the sorting of parasites according to the manufacturer's instructions.

[11] = system: HF-19 (normal fibroblast); assay: MTT cytotoxicity assay, HF-19; assay type: cell-based, human; conditions: IC50 against HF-19 / IC50 against T. brucei
Experimental: as §1

[12] = MTT cytotoxicity assay, HF-19; assay type: cell-based, human; conditions: human, HF-19 normal fibroblast cells; HF-19 normal fibroblast, 48 h, MTT
Experimental: as §1

U937 (leukemia) = assay: MTT cytotoxicity assay, U937; assay type: cell-based, human; conditions: IC50 against U937 / IC50 against T. brucei
Experimental: as §1

[13] = MTT cytotoxicity assay, U937; assay type: cell-based, human; conditions: human, U937 leukemia cells; U937 leukemia, 48 h, MTT
Experimental: as §1

Trypanosoma cells [14] = assay: Nexin apoptosis assay (FACS); assay type: cell-based, Trypanosoma brucei brucei
Experimental: as §2, §3
This assay was performed to detect both Phosphatidylserine (PS) signal and fracture of nuclear membraneas markers of apoptosis. Seeding and incubation of parasites with plant materials (extracts, fractions and compounds) were done under the same conditions in Alamar Blue assay. […] The contents of the wells were then subjected to FACS analysis using, the Millipore guava easyCyte 5HT FACS machine for the sorting and estimation of apoptotic parasites according to the manufacturer's instructions.

THP-1 (leukemia) = assay: MTT cytotoxicity assay, THP-1; assay type: cell-based, human; conditions: IC50 against THP-1 / IC50 against T. brucei
Experimental: as §1

[15] = MTT cytotoxicity assay, THP-1; assay type: cell-based, human; conditions: human, THP-1 leukemia cells; THP-1 leukemia, 48 h, MTT
Experimental: as §1

[16] = system: nuclear DNA of Trypanosoma cells; conditions: reported in literature; cited from earlier work

COC(=O)C1=CO[C@H]2O[C@@H]3/C(=C\c4ccc(O)c(OC)c4)C(=O)O[C@@]34C=C[C@@H]1[C@H]24 [Oruwacin]
anti-Leishmania activity (Leishmania): has anti-Leishmania activity

COC(=O)C1=CO[C@@H]2O[C@H]3/C(=C\c4ccc(O)c(OC)c4)C(=O)O[C@]34C=C[C@H]1[C@H]24 [ML-2-2, (3aS,4aR,4a^1S,7aS,9aS,3E)-methyl 3-(4-hydroxy-3-methoxybenzylidene)-2-oxo-2,3,3a,4a,4a^1,7a-hexahydro-1,4,5-trioxadicyclopenta[a,hi]indene-7-carboxylate]
SI (selectivity index) (KATOIII (stomach cancer)): 0.17 | IC50 at 48 h [1]: 0.21 µM | IC50 [2]: 1.27 µM | IC50 at 48 h [3]: 3.87 µM | SI (selectivity index) (HL-60 (leukemia)): 3.05 | IC50 at 48 h [4]: 0.11 µM | SI (selectivity index) (LoVo (colon cancer)): 0.09 | SI (selectivity index) (HCT-15 (colon cancer)): 12.63 | IC50 at 48 h [5]: 16 µM | IC50 at 48 h [6]: 1.35 µM | SI (selectivity index) (Caco2 (colon cancer)): 1.06 | IC50 at 48 h [7]: 6.01 µM | SI (selectivity index) [8]: 4.73 | SI (selectivity index) (Jurkat (leukemia)): 1.93 | IC50 at 48 h [9]: 2.45 µM | numbers of cells in the G2 and M phase of cell cycle (Trypanosoma cells [10]): did not; also recorded: had no effect | SI (selectivity index) [11]: 9.54 | IC50 at 48 h [12]: 12.1 µM | SI (selectivity index) (U937 (leukemia)): 3.21 | IC50 at 48 h [13]: 4.08 µM | induction of apoptosis (Trypanosoma cells [14]; 6.25 μM, 24-hour incubation): no significant induction of apoptosis | induction of apoptosis in Trypanosoma cells (Trypanosoma cells [14]; same concentration (6 μM)): did not | SI (selectivity index) (THP-1 (leukemia)): 5.50 | IC50 at 48 h [15]: 6.98 µM

N=C(N)c1ccc(OCCCCCOc2ccc(C(=N)N)cc2)cc1 [Pentamidine]
effect on nuclear DNA of Trypanosoma cells [16]: no effect on nuclear DNA
